Values quoted from earlier work as cited in patent US20240299353A1, “COMPOSITIONS AND METHODS FOR TREATING […] 5-MEO-DMT” (Alvarius Pharmaceuticals Ltd., priority 2021, published 2024).

System: cerebral organoids
Settings: 5-MeO-DMT treated cerebral organoids; cited from earlier work

COc1ccc2[nH]cc(CCN(C)C)c2c1 [5-MeO-DMT, 5-methoxy-N,N-dimethyltryptamine]
mGluR5 receptor expression: decrease in mGluR5 receptor expression
